Data set [1] concerns HeLa. Put plainly: Induction of apoptosis in human HeLa cells at 10 uM incubated for 3 hrs followed by compound washout by NucView-488 staining based fluorescence microscopy. The class given is functional, cell-based.
Data set [2] relates to CHO. In words: Induction of apoptosis in CHO cells at 10 uM incubated for 3 hrs followed by compound washout by NucView-488 staining based fluorescence microscopy. The class given is cell-based, Cricetulus griseus. The following applies: chinese hamster.
The nature of data set [3]: Drug distribution in cytosol of human HeLa cells at 2 uM incubated for 3 hrs followed by compound washout and subsequent irradiation with mercury lamp at 10J/cm2 using Alexa Fluor-546 labeled compound by fluorescence microscopy. The class given is ADME, subcellular.
Data set [4] relates to HeLa. Put plainly: Induction of apoptosis in human HeLa cells at 10 uM incubated for 3 hrs followed by compound washout by NucView-488 staining based fluorescence microscopy relative to control. The class given is functional.
Data set [5] has as its system CHO. In words: Induction of apoptosis in CHO cells at 10 uM incubated for 3 hrs followed by compound washout by NucView-488 staining based fluorescence microscopy relative to control. The data set is classed as cell-based, Cricetulus griseus. As to conditions: chinese hamster.
Data set [6] has as its system HeLa. Put plainly: Induction of apoptosis in human HeLa cells at 2 uM incubated for 3 hrs followed by compound washout and subsequent irradiation with mercury lamp at 10J/cm2 and further incubated for 3 hrs using Alexa Fluor-546 labeled compound by fluorescence microscopy. The class given is functional, cell-based.

Active and inactive are the calls of the source. The calls are words filed in the database; no cut-off is given here. Residues, ends and D or L forms follow the SMILES beside them.

As for `CC[C@H](C)[C@H](NC(=O)[C@H](CCCNC(=N)N)NC(=O)[C@H](CCCNC(=N)N)NC(=O)[C@H](CC(C)C)NC(=O)[C@H](CCC(=O)O)NC(=O)[C@H](CS)NC(=O)[C@H](C)NC(=O)[C@@H](NC(=O)[C@H](Cc1c[nH]c2ccccc12)NC(=O)[C@@H](NC(=O)[C@H](CCCNC(=N)N)NC(=O)[C@H](CCCNC(=N)N)NC(=O)[C@H](CCCNC(=N)N)NC(=O)[C@@H](N)CCCNC(=N)N)[C@@H](C)CC)[C@@H](C)CC)C(=O)NCC(=O)N[C@@H](CC(=O)O)C(=O)N[C@@H](CCC(=O)O)C(=O)N[C@@H](Cc1ccccc1)C(=O)N[C@@H](CC(N)=O)C(=O)N[C@@H](C)C(=O)N[C@@H](Cc1ccc(O)cc1)C(=O)N[C@@H](Cc1ccc(O)cc1)C(=O)NCC(=O)N[C@@H](CS)C(=O)O` (H-RRRRIWIACELRRIGDEFNAYYGC-OH), the result in data set [1] was inactive. For the same compound, the Activity result in data set [2] is “Not Active”.
Regarding H-RKKRRQRRRAQELRRIGDEFNAYYARGC-OH, the outcome in data set [1] was inactive.
On the same count and under the same terms, the result for H-RKKRRQRRREIWIAQELRRIGC-OH reads “inactive”; that for H-RKKRRQRRREIWIAQELRRIGDEFGC-OH, “inactive”; that for H-RKKRRQRRREIWIAQELRRIGDEFNAGC-OH, “inactive”.
As for H-RKKRRQRRREIWIAQELRRIGDEFNAYYARGC-OH, in data set [3], the Drug uptake result is listed as “Active”.
As to H-RKKRRQRRREIWIAQELRRIGDEFNAYYGC-OH, the Activity is reported as 79% in data set [4] and 44% in data set [5].
Take H-RKKRRQRRREIWIAQELRRIGDGC-OH: the result in data set [1] was inactive.
The same measure, in the same setting: the same measure for H-RKKRRQRRRIAQELRRIGDEFNAYYARGC-OH: “inactive”.
Turning to H-RKKRRQRRRIWIAQELRRIGDEFNAYYARGC-OH, the Activity in data set [4] is 85%; in data set [5], 31%.
As for H-RKKRRQRRRIWIAQELRRIGDEFNAYYGC-OH, the outcome in data set [6] was Active. Moreover, the Drug uptake result in data set [3] is on record as “Active”.
As for H-RKKRRQRRRWGC-OH, the outcome in data set [6] was inactive.
In the case of H-RKKRRQRRRWIAQELRRIGDEFNAYYARGC-OH, the result in data set [1] was Active.
Still for that read-out and setting: the same measure for H-RKKRRQRRRWIAQELRRIGDGC-OH: “Active”.
On to H-RRIWIAQELRRIGDEFNAYYGC-OH, for which, in data set [1], the result was inactive. The Activity result in data set [2] is “Not Active”.
In the same order, the values of H-RRRRRRIWIAQELRRIGDEFNAYYGC-OH are “inactive” and “Not Active”.
Turning to H-RRRRRRRRIWIAQELRRIGDEFNAYYGC-OH, the Activity in data set [4] was 70%. In addition, the result in data set [1] and in data set [6] was Active. Further, the Drug uptake result in data set [3] is recorded as “Active”.

Source of the values: ChEMBL document CHEMBL4706668, “Minimization of apoptosis-inducing CPP-Bim peptide” (Bioorg Med Chem Lett, 2021).
